What was measured:
human CYP11B1 = target: T1, human CYP11B1 (Homo sapiens, UniProt P15538); assay: G-402 cellular enzyme assay, human CYP11B1 (cortisol release, HTRF); assay type: cell-based; settings: stable G-402 cells expressing human CYP11B1; 1 μM Deoxycortisol; 16 h
T1 construct: The expression plasmids contains the ORF for either human/cyno CYP11B1 or CYP11B2; expressed in transfected cells
T1 sequence (P15538 25-503): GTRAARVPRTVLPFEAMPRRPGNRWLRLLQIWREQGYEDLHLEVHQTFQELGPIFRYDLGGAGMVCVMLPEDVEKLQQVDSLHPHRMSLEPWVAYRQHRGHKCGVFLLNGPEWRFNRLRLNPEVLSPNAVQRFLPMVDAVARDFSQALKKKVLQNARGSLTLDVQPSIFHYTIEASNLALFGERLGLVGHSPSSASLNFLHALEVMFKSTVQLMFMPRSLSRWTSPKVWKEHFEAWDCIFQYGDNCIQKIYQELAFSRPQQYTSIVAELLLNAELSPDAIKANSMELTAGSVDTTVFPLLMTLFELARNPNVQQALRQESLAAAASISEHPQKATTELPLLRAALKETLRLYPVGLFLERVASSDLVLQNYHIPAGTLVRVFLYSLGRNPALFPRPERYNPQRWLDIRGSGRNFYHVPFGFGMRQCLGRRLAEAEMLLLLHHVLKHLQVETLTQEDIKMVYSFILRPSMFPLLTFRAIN
Excerpt: Herein we identified the use of the G-402 cell line as a host cell to ectopically express (transiently or stably) enzymes of the CYP11 family. Specifically we developed stable G-402 cells expressing ectopically human CYP11B1, human CYP11B2, human CYP11A1, cynmolgus CYP11B1 or cynomolgus CYP11B2 enzyme activity. Importantly the identified cell line G-402 expresses co-factors (adrenodoxin and adrenodoxin reductase) important for the activity of the CYP11 family and no relevant enzyme activity of the CYP11 family (in comparison to H295R cells) was detected in these cells. Therefore the G-402 cell line is uniquely suited as a host cell for the ectopic expression of enzymes from the CYP11 family.
G-402 cells can be obtained from ATCC (CRL-1440) and were originally derived from a renal leiomyoblastoma.
The expression plasmids contains the ORF for either human/cyno CYP11B1 or CYP11B2 under the control of a suitable promoter (CMV-promoter) and a suitable resistance marker (neomycin). Using standard techniques the expression plasmid is transfected into G-402 cells and these cells are then selected for expressing the given resistance markers. Individual cell-clones are then selected and assessed for displaying the desired enzymatic activity using 11-Deoxycorticosterone (Cyp11B2) or 11-Deoxycortisol (Cyp11B1) as a substrate.
G-402 cells expressing CYP11 constructs were established as described above and maintained in McCoy's 5a Medium Modified, ATCC Catalog No. 30-2007 containing 10% FCS and 400 μg/ml G418 (Geneticin) at 37° C. under an atmosphere of 5% CO2/95% air. Cellular enzyme assays were performed in DMEM/F12 medium containing 2.5% charcoal treated FCS and appropriate concentration of substrate (0.3-10 uM 11-Deoxycorticosterone, 11-Deoxycortisol or Corticosterone). For assaying enzymatic activity, cells were plated onto 96 well plates and incubated for 16 h. An aliquot of the supernatant is then transferred and analyzed for the concentration of the expected product (Aldosterone for CYP11B2; Cortisol for CYP11B1). The concentrations of these steroids can be determined using HTRF assays from CisBio analyzing either Aldosterone or Cortisol.
Inhibition of the release of produced steroids can be used as a measure of the respective enzyme inhibition by test compounds added during the cellular enzyme assay. The dose dependent inhibition of enzymatic activity by a compound is calculated by means of plotting added inhibitor concentrations (x-axes) vs. measured steroid/product level (y-axes). The inhibition is then calculated by fitting the following 4-parameter sigmoidal function (Morgan-Mercer-Flodin (MMF) model) to the raw data points using the least squares method:
[formula] wherein, A is the maximum y value, B is the EC50 factor determined using XLFit, C is the minimum y value and D is the slope value.
EC50 values for compounds claimed herein were tested with the G402-based assay system described. Cyp11B2 enzyme activity was tested in presence of 1 μM Deoxycorticosterone and variable amounts of inhibitors; Cyp11B1 enzyme activity was tested in presence of 1 μM Deoxycortisol and variable amounts of inhibitors.

[1] = rat, cited from earlier work; for plasma aldosterone: FAD286 following 4 weeks of treatment, spironolactone at 4 and 8 weeks
CYP11B2 = CYP11B2 (Homo sapiens, UniProt P19099); settings: patients with primary aldosteronism, cited from earlier work
CYP11B2, sequence (P19099 25-503): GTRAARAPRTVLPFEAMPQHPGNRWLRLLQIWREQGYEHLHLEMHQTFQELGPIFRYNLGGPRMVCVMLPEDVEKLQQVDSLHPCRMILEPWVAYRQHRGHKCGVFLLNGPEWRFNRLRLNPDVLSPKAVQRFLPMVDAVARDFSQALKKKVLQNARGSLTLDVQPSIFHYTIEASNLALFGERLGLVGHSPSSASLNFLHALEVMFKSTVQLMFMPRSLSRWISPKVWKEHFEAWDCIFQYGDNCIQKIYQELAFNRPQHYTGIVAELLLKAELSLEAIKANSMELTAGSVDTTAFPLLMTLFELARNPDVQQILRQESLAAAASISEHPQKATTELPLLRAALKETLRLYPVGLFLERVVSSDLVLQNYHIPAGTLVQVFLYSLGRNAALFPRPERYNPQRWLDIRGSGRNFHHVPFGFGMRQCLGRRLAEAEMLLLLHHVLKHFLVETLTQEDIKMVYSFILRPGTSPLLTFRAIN

Row | SMILES | EC50 (human CYP11B1) [µM] | further results
1 | CN1C(=O)CCc2cc(-c3n[nH]cc3CN3CCN(C(=O)c4cnn(C)c4)CC3)cc(Cl)c21 [Example 44, 8-Chloro-1-methyl-6-[4-[[4-(1-methylpyrazole-4-carbonyl)piperazin-1-yl]methyl]-1H-pyrazol-3-yl]-3,4-dihydroquinolin-2-one] | > 0.03 | 
2 | CC(=O)N1CCN(Cc2c[nH]nc2-c2ccc3c(c2)CCC(=O)N3C)C[C@H]1C [Example 49, (−)-6-[4-[[(3R)-4-Acetyl-3-methyl-piperazin-1-yl]methyl]-1H-pyrazol-3-yl]-1-methyl-3,4-dihydroquinolin-2-one] | > 0.03 | 
3 | CN1C(=O)CCc2c1ccc(-c1n[nH]cc1CN1CC3(C1)CN(C(=O)c1cnn(C)c1)C3)c2Cl [Example 53, 5-Chloro-1-methyl-6-[4-[[2-(1-methylpyrazole-4-carbonyl)-2,6-diazaspiro[3.3]heptan-6-yl]methyl]-1H-pyrazol-3-yl]-3,4-dihydroquinolin-2-one] | > 0.03 | 
4 | CCS(=O)(=O)N1CC2(CN(Cc3c[nH]nc3-c3ccc4c(c3Cl)CCC(=O)N4C)C2)C1 [Example 54, 5-Chloro-6-[4-[(2-ethylsulfonyl-2,6-diazaspiro[3.3]heptan-6-yl)methyl]-1H-pyrazol-3-yl]-1-methyl-3,4-dihydroquinolin-2-one] | > 0.03 | 
5 | CCS(=O)(=O)N1CC2(CN(Cc3cn[nH]c3-c3ccc4c(c3)CCC(=O)N4C)C2)C1 [Example 56, 6-[4-[(2-Ethylsulfonyl-2,6-diazaspiro[3.3]heptan-6-yl)methyl]-1H-pyrazol-3-yl]-1-methyl-3,4-dihydroquinolin-2-one] | > 0.03 | 
6 | CC(=O)N1CC2(CN(Cc3cn[nH]c3-c3ccc4c(c3Cl)CCC(=O)N4C)C2)C1 [Example 59, 6-[4-[(2-Acetyl-2,6-diazaspiro[3.3]heptan-6-yl)methyl]-1H-pyrazol-3-yl]-5-chloro-1-methyl-3,4-dihydroquinolin-2-one] | > 0.03 | 
7 | CN1C(=O)CCc2cc(-c3[nH]ncc3CN3CC4(C3)CN(C(=O)c3cnn(C)c3)C4)cc(Cl)c21 [Example 60, 8-Chloro-1-methyl-6-[4-[[2-(1-methylpyrazole-4-carbonyl)-2,6-diazaspiro[3.3]heptan-6-yl]methyl]-1H-pyrazol-3-yl]-3,4-dihydroquinolin-2-one] | > 0.03 | 
8 | CCS(=O)(=O)N1CC2(CN(Cc3cn[nH]c3-c3cc(Cl)c4c(c3)CCC(=O)N4C)C2)C1 [Example 62, 8-Chloro-6-[4-[(2-ethylsulfonyl-2,6-diazaspiro[3.3]heptan-6-yl)methyl]-1H-pyrazol-3-yl]-1-methyl-3,4-dihydroquinolin-2-one] | > 0.03 | 
9 | CN1C(=O)CCc2cc(-c3[nH]ncc3CN3CC4(C3)CN(C(=O)c3nccn3C)C4)ccc21 [Example 63, 1-Methyl-6-[4-[[2-(1-methylimidazole-2-carbonyl)-2,6-diazaspiro[3.3]heptan-6-yl]methyl]-1H-pyrazol-3-yl]-3,4-dihydroquinolin-2-one] | > 0.03 | 
10 | CN1C(=O)CCc2cc(-c3[nH]ncc3CN3CC4(C3)CN(C(=O)c3ncccc3Cl)C4)ccc21 [Example 64, 6-[4-[[2-(3-Chloropyridine-2-carbonyl)-2,6-diazaspiro[3.3]heptan-6-yl]methyl]-1H-pyrazol-3-yl]-1-methyl-3,4-dihydroquinolin-2-one] | > 0.03 | 
11 | N#Cc1ccc(C2CCCc3cncn32)cc1 (centres unmarked) [FAD286] |  | plasma aldosterone [1]: reduced
12 | N#Cc1ccc([C@H]2CCc3cncn32)c(F)c1 [LCI699] |  | blood pressure (CYP11B2): mildly decreased; hypokalemia (CYP11B2): corrected; selectivity (effects on the glucocorticoid axis) (CYP11B2): poor selectivity; circulating aldosterone levels (CYP11B2; oral): significantly lower
13 | CC(=O)S[C@@H]1CC2=CC(=O)CC[C@]2(C)[C@H]2CC[C@@]3(C)[C@@H](CC[C@@]34CCC(=O)O4)[C@H]12 [spironolactone] |  | plasma aldosterone [1]: increased; angiotensin II and salt-stimulated PAI-1 mRNA expression in the aorta and the heart [1]: enhanced
